Experimental findings from patent US20150259344A1, “IMIDAZOLE DERIVATIVE” (DAINIPPON SUMITOMO PHARMA CO., LTD., priority 2012, published 2015) are described below.

The target in the first experiment is T1, human α7 nAChR (Homo sapiens, UniProt P36544).
T1 construct: expressed in transfected cells
T1 sequence (P36544 23-502): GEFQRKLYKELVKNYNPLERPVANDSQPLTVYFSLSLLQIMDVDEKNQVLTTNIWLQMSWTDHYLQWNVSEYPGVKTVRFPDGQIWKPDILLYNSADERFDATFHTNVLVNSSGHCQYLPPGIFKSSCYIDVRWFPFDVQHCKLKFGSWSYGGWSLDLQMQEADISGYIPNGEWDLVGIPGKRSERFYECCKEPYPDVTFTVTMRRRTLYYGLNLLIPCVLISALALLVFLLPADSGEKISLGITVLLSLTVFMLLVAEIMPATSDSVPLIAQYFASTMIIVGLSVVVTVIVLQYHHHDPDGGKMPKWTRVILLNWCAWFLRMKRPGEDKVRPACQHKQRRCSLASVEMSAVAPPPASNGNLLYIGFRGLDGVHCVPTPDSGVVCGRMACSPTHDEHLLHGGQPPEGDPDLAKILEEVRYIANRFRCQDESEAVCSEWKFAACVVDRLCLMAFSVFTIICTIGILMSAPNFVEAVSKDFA
The experiment can be described thus: Evaluation of PAM activity with human α7 nACh receptor stably expressing cells (aequorin luminescence, FDSS7000). The format is cell-based. Particulars: 1 μM test compound (values marked *, footnote of Table 25); ACh at EC20; ratio of RLU (Max-Min) to control wells; read-out: α7PAM (%) @1 μM. As for the experimental part: Evaluation of PAM activity with human α7 nACh receptor stably expressing cells
(1) Human α7 nAChR stably expressing cells
Human α7 nAChR stably expressing cells were generated and cultured.
Thus, the cells were subcultured.
Seven days after subculturing, the cells were treated with TrypLE Express to collect them when they were about 80% confluent.
On the next day after seeding, Viviren (cat#E649X, Promega, Madison, Wis., USA) was added to the medium so that the final concentration could be 4 μM (15 μL/well). The plates were centrifuged and then placed in the dark for 4 hours at room temperature.
(2) Preparation of the Test Samples
Each of the test compounds was dissolved in DMSO to prepare each test sample at a concentration of 1000-fold the final concentration. To the solution was added Hanks/20 mM HEPES/0.2% BSA (cat#A3803, Sigma, St. Louis, Mo., USA), and the concentration was adjusted to 6-fold the final concentration.
(3) Evaluation of PAM Activity
FDSS7000 (Hamamatsu Photonics) was used to detect the luminescence signal evoked by α7 nAChR stimulation. The cells and a luminescent substrate were put on a plate, and the test sample was added thereto. […] The ratio of the RLU (Max-Min) of the test-compound-containing wells to that of the control wells was defined as PAM activity.
As to `O=C(NC1CCC1)N1CCC(n2cnc(-c3ccccc3)c2Cl)CC1` [Example 79], the activity at 1 µM is 112%.

Consider `CC(C)(C)C(=O)N[C@H]1CC[C@@H](n2cnc(-c3ccc(C(F)(F)F)cc3)c2)CC1` [Example 161], for which the activity at 1 µM came to 233%.

`O=C(N[C@H]1CC[C@@H](n2cnc(-c3ccc(C(F)(F)F)cc3)c2)CC1)C1CCC(F)(F)CC1` [Example 162]: the activity at 1 µM came to 323%.

The same experiment, now with this note: 10 μM test compound; ACh at EC20; ratio of RLU (Max-Min) to control wells.
For the compound `O=C(NC1CCCCC1)N1CCC(n2cnc(-c3cccs3)c2)CC1` [Example 129], the “α7PAM (%) @10 μM” value turned out to be 330%.

The same experiment, now with this note: 10 μM test compound; ACh at EC20; ratio of RLU (Max-Min) to control wells; read-out: α7PAM (%) @10 μM.
Take `O=C(NC1CCCC1)N1CCC(n2cnc(-c3cccc(F)c3)c2Cl)CC1` [Example 83]: the activity at 10 µM amounted to 671%.

`O=C(NC1CCCCC1)N1CCC(n2cnc(-c3cccc(F)c3)c2Cl)CC1` [Example 84]: the activity at 10 µM was found to be 747%.

For the compound `CC(C)(C)NC(=O)N1CCC(n2cnc(-c3ccccc3F)c2Cl)CC1` [Example 92], the activity at 10 µM is 758%.

For the compound `O=C(NC1CCOCC1)N1CCC(n2cnc(-c3cccc(C(F)(F)F)c3)c2Cl)CC1` [Example 94, 4-{5-chloro-4-[3-(trifluoromethyl)phenyl]-1H-imidazol-1-yl}-N-(tetrahydro-2H-pyran-4-yl)piperidine-1-carboxamide], the activity at 10 µM amounted to 981%.

Take `CC(C)(C)NC(=O)N1CCC(n2cnc(-c3ccccc3)c2C#N)CC1` [Example 100]: the activity at 10 µM came to 708%.

As for `Cc1c(-c2ccccc2)ncn1C1CCN(C(=O)NC2CCCCC2)CC1` [Example 102], the activity at 10 µM is 641%.

As for `CCc1c(-c2ccccc2)ncn1C1CCN(C(=O)NC2CCCCC2)CC1` [Example 103], the activity at 10 µM was determined as 452%.

On to `O=C(NC1CCCCC1)N1CCC(n2cnc(-c3ccccc3)c2C2CC2)CC1` [Example 108], for which the activity at 10 µM came out at 576%.

Consider `CC(C)(C)NC(=O)N1CCC(n2cnc(-c3ccccc3)c2C2CC2)CC1` [Example 109], for which the activity at 10 µM was determined as 457%.

On to `O=C(NC1CCCCC1)N1CCC(n2cnc(-c3ccccc3)c2CO)CC1` [Example 110], for which the activity at 10 µM was 201%.

For the compound `CC(C)(C)NC(=O)N1CCC(n2cnc(-c3ccccc3)c2CO)CC1` [Example 111], the activity at 10 µM is 153%.

On to `O=C(NC1CCC(F)(F)CC1)N1CCC(n2cnc(-c3ccccc3)c2C2CC2)CC1` [Example 113], for which the activity at 10 µM came out at 882%.

For `Cc1nc(-c2ccccc2)cn1C1CCN(C(=O)NC2CCCCC2)CC1` [Example 114], the activity at 10 µM came out at 133%.

For the compound `O=C(NC1CCCCC1)N1CCC(n2cc(-c3ccccc3)nc2Cl)CC1` [Example 116], the activity at 10 µM turned out to be 131%.

On to `O=C(NC1CCCCC1)N1CCC(n2cnc(-c3ccc(Cl)s3)c2)CC1` [Example 117], for which the activity at 10 µM is 853%.

`O=C(NC1CCC(F)(F)CC1)N1CCC(n2cnc(-c3ccnc(Cl)c3)c2)CC1` [Example 120]: the activity at 10 µM was determined as 208%.

As to `O=C(NC1CCCC1)N1CCC(n2cnc(-c3cccs3)c2)CC1` [Example 121], the activity at 10 µM amounted to 201%.

For the compound `Cc1ccc(-c2cn(C3CCN(C(=O)NC4CCCC4)CC3)cn2)s1` [Example 122], the activity at 10 µM is 459%.

`O=C(NC1CCCCC1)N1CCC(n2cnc(-c3cccs3)c2)CC1` [Example 123]: the activity at 10 µM was determined as 345%.

As to `Cc1ccc(-c2cn(C3CCN(C(=O)NC4CCCCC4)CC3)cn2)s1` [Example 124], the activity at 10 µM came out at 572%.

For the compound `O=C(NC1CCC(F)(F)CC1)N1CCC(n2cnc(-c3cccs3)c2)CC1` [Example 125], the activity at 10 µM came out at 466%.

Consider `Cc1ccc(-c2cn(C3CCN(C(=O)NC4CCC(F)(F)CC4)CC3)cn2)s1` [Example 126], for which the activity at 10 µM amounted to 780%.

Take `COC1CCC(NC(=O)N2CCC(n3cnc(-c4cccs4)c3)CC2)CC1` (stereo not shown) [Example 127]: the activity at 10 µM came out at 170%.

Consider `COC1CCC(NC(=O)N2CCC(n3cnc(-c4ccc(C)s4)c3)CC2)CC1` (stereo not shown) [Example 128], for which the activity at 10 µM amounted to 188%.

In the case of `O=C(NC1CCCCC1)N1CCC(n2cnc(-c3ccc(C(F)(F)F)cn3)c2)CC1` [Example 131], the activity at 10 µM worked out at 738%.

For `O=C(NC1CCCCC1)N1CCC(n2cnc(-c3ccccn3)c2)CC1` [Example 132], the activity at 10 µM is 151%.

In the case of `O=C(NC1CCCCC1)N1CCC(n2cnc(-c3cccnc3)c2)CC1` [Example 133], the activity at 10 µM was found to be 101%.

In the case of `O=C(NC1CCCCC1)N1CCC(n2cnc(-c3ccccn3)c2Cl)CC1` [Example 134], the activity at 10 µM came to 171%.

As for `O=C(NC1CCCCC1)N1CCC(n2cnc(-c3ccncc3)c2Cl)CC1` [Example 135], the activity at 10 µM came out at 154%.

In the case of `O=C(NC1CCC(F)(F)CC1)N1CCC(n2cnc(-c3ccncc3)c2Cl)CC1` [Example 136], the activity at 10 µM came out at 309%.

As for `O=C(NC1CCC(F)(F)CC1)N1CCC(n2cnc(-c3ccccn3)c2Cl)CC1` [Example 137], the activity at 10 µM turned out to be 328%.

In the case of `O=C(C1CCC(F)(F)CC1)N1CCC(n2cnc(-c3ccc(C(F)(F)F)cc3)c2)CC1` [Example 138], the activity at 10 µM amounted to 597%.

In the case of `O=C(C1CCC(F)(F)CC1)N1CCC(n2cnc(-c3ccc(F)c(F)c3)c2)CC1` [Example 139], the activity at 10 µM was 274%.

Turning to `O=C(c1ccc(F)cn1)N1CCC(n2cnc(-c3ccc(F)c(F)c3)c2)CC1` [Example 140], the activity at 10 µM came to 127%.

For the compound `O=C(c1ccc(F)cn1)N1CCC(n2cnc(-c3ccc(Cl)cc3)c2)CC1` [Example 141], the activity at 10 µM came to 253%.

`COC1CCC(C(=O)N2CCC(n3cnc(-c4ccccc4)c3)CC2)CC1` (stereo not shown) [Example 142]: the activity at 10 µM was 163%.

Turning to `O=C(C1CCC(F)(F)CC1)N1CCC(n2cnc(-c3cccc(F)c3)c2)CC1` [Example 144], the activity at 10 µM turned out to be 346%.

As for `O=C(C1CCC(F)(F)CC1)N1CCC(n2cnc(-c3cccc(OC(F)F)c3)c2)CC1` [Example 145], the activity at 10 µM is 363%.

On to `O=C(C1CCC(F)(F)CC1)N1CCC(n2cnc(-c3ccc(OC(F)F)cc3)c2)CC1` [Example 146], for which the activity at 10 µM came out at 572%.

For `CCOc1ccc(-c2cn(C3CCN(C(=O)C4CCC(F)(F)CC4)CC3)cn2)cc1` [Example 147], the activity at 10 µM was determined as 484%.

Consider `COc1ccc(-c2ncn(C3CCN(C(=O)C4CCC(F)(F)CC4)CC3)c2Cl)cc1` [Example 148], for which the activity at 10 µM was 700%.

Turning to `O=C(C1CCC(F)(F)CC1)N1CCC(n2cnc(-c3ccc(F)cc3)c2Cl)CC1` [Example 149], the activity at 10 µM amounted to 862%.

Turning to `O=C(C1CCOCC1)N1CCC(n2cnc(-c3cccc(F)c3)c2Cl)CC1` [Example 150], the activity at 10 µM was found to be 137%.

`O=C(C1CCOCC1)N1CCC(n2cnc(-c3ccc(F)cc3)c2Cl)CC1` [Example 151]: the activity at 10 µM stood at 155%.

For the compound `O=C(C1CCC(F)(F)CC1)N1CCC(n2cnc(-c3ccccc3)c2Cl)CC1` [Example 152], the activity at 10 µM was found to be 945%.

For the compound `N#Cc1c(-c2ccccc2)ncn1C1CCN(C(=O)C2CCCCC2)CC1` [Example 153], the activity at 10 µM worked out at 538%.

Regarding `N#Cc1c(-c2ccc(F)cc2)ncn1C1CCN(C(=O)C2CCC(F)(F)CC2)CC1` [Example 154, 1-{1-[(4,4-difluorocyclohexyl)carbonyl]piperidin-4-yl}-4-(4-fluorophenyl)-1H-imidazole-5-carbonitrile], the activity at 10 µM was found to be 644%.

On to `N#Cc1c(-c2cccc(F)c2)ncn1C1CCN(C(=O)C2CCC(F)(F)CC2)CC1` [Example 155], for which the activity at 10 µM amounted to 252%.

Consider `N#Cc1c(-c2ccccc2F)ncn1C1CCN(C(=O)C2CCC(F)(F)CC2)CC1` [Example 156, 1-{1-[(4,4-difluorocyclohexyl)carbonyl]piperidin-4-yl}-4-(2-fluorophenyl)-1H-imidazole-5-carbonitrile], for which the activity at 10 µM worked out at 522%.

With `N#Cc1c(-c2ccc(C(F)(F)F)cc2)ncn1C1CCN(C(=O)C2CCC(F)(F)CC2)CC1` [Example 157], the activity at 10 µM worked out at 236%.

Consider `N#Cc1c(-c2cccc(C(F)(F)F)c2)ncn1C1CCN(C(=O)C2CCC(F)(F)CC2)CC1` [Example 158], for which the activity at 10 µM is 132%.

As for `N#Cc1c(-c2ccc(Cl)cc2)ncn1C1CCN(C(=O)C2CCC(F)(F)CC2)CC1` [Example 159], the activity at 10 µM came out at 692%.

With `N#Cc1c(-c2cccc(Cl)c2)ncn1C1CCN(C(=O)C2CCC(F)(F)CC2)CC1` [Example 160], the activity at 10 µM was found to be 367%.

As to `CC(C)(C)C(=O)N[C@H]1CC[C@@H](n2cnc(-c3ccccc3)c2Cl)CC1` [Example 167], the activity at 10 µM was determined as 221%.

Staying with this experiment, now noted: comparison across Tables 18 to 25.
`O=C(NC1CCOCC1)N1CCC(n2cnc(-c3ccc(C(F)(F)F)cc3)c2Cl)CC1` [Example 93]: the “PAM activity for α7 nAChR (in words)” value was “stronger PAM activity than others”.

Regarding `N#Cc1c(-c2ccccc2)ncn1C1CCN(C(=O)NC2CCC(F)(F)CC2)CC1` [Example 99], the “PAM activity for α7 nAChR (in words)” value is listed as “stronger PAM activity than others”.

Take `O=C(NC1CCC(F)(F)CC1)N1CCC(n2cnc(-c3ccc(Cl)s3)c2)CC1` [Example 118]: the “PAM activity for α7 nAChR (in words)” value is on record as “stronger PAM activity than others”.
